Assay results as given in paper PMC5310922, “A high-throughput phenotypic screen identifies clofazimine as a potential treatment for cryptosporidiosis” (PLoS Neglected Tropical Diseases, 2017).
Like-named read-outs stand apart in the source and are kept apart here.

Experiments:
[1] = HepG2 72 h cytotoxicity (CellTiter-Glo); assay type: cell-based, human; details: human
Experimental: (§1) Two mammalian cell lines were used for counter-screening for general cytotoxicity of hit compounds: human embryonic kidney cells (HEK293T; ATCC CRL-3216) and human hepatocellular carcinoma cells (HepG2; ATCC HB-8065). […] Compounds were pre-spotted into tissue culture-treated white solid-bottomed 1536-well plates (Greiner) in a 1:3 dose-response dilution (top concentration 20 μM). HEK293T and HepG2 cells were diluted to 75×10^3 cells/mL and 150×10^3 cells/mL, respectively, and 5 μL/well were dispensed into assay plates with a MultiFlo FX Multi-Mode Dispenser (Biotek). […] At the completion of the assay, CellTiter-Glo (Promega) was prepared at 1:2 (reagent:water) of the manufacturer’s instructions, and 2 μL were dispensed into each well. After a 5 min incubation at room temperature, luminescence readings were measured with an EnVision Multilabel Plate Reader (Perkin Elmer). […] were uploaded into Genedata Screener (v13.0-Standard), and data normalized to DMSO- and puromycin-treated wells. A four-parameter non-linear regression curve fit was applied to dose-response data using Genedata to determine the half maximal cytotoxic concentration (CC50) of each compound.

C. parvum [2] = experiment: Mouse model of acute cryptosporidiosis, fecal oocyst shedding by flow cytometry; assay type: in vivo, C57BL/6 IFNγ-/- mice; details: for oocyst shedding, % of mock-dosed mice: 10 mg/kg oral on days 4, 5, 6 p.i., 10^4 oocysts, day 7 (within 24 h of end of treatment)
Experimental: Four week old female C57BL/6 IFNγ^-/- mice were purchased from the Jackson Laboratory and acclimated for four to ten days in specific pathogen-free conditions in the Health Sciences Biomedical Research Facility at the University of California, San Diego. Mice were provided water and chow (Teklad 2920X) ad libitum. […] Treatment regimens included 10 mg/kg, 100 mg/kg, and 0 mg/kg (vehicle only; n = 4 per group). Certain assays also involved gavage of characterized anticryptosporidial BKI-1294 (a kind gift from W. […] Oocysts were extracted via a modified discontinuous sucrose gradient technique. Briefly, […] solution was freshly prepared by dissolving 156.25 g sucrose and 2.5 mL phenol in 100 mL water. Fecal pellets were removed from storage then homogenized by vortexing and pipetting. […] Oocysts were floated from feces by centrifugation at 1,000×g for 20 min and collected with a pipet tip from the 1.064/1.103 specific gravity interface. Oocysts were rinsed once in cold PBS, pelleted by centrifugation at 15,000×g for 10 min, and resuspended in PBS. 50 μL aliquots were incubated for 30 min at room temperature with 0.25 μg fluorescein isothiocyanate-conjugated mouse anti-Cryptosporidium antibody (OW50-FITC, BioRad 2402-3007), then diluted to 200 μL with PBS. Samples were analyzed using a Guava EasyCyte flow cytometer and CytoSoft Data Acquisition and Analysis software (v5.3; Guava Technologies, Inc.), using a 100 s sampling interval, 0.59 μL/s flow rate, and logical gating of forward and side light scatter and OW50-FITC fluorescence signals. Each experimental run included positive and negative controls to calibrate region settings discriminating the oocyst-FITC population from background signals. Oocyst counts/mL sample values were exported to Excel (Microsoft Corp.) for normalization to counts/mg feces. Final graphing and statistical analyses of data were done using GraphPad Prism software (v6, GraphPad Software, Inc.). Two-way ANOVA with Dunnett's correction (Fig 4A) and unpaired multiple t-tests with False Discovery Rate approach (Fig 4B) were performed on % Vehicle data to determine significance between vehicle-treated and compound-treated mice.

[3] = Pharmacokinetic study in mice (plasma, feces, urine); details: 20 mg/kg oral; for fecal excretion (unchanged), first 24 h: mean ± SEM; for peak plasma concentration: mean ± SEM n=3
C. parvum [4] = experiment: Host cell 3-h pre-treatment, with or without wash, then C. parvum infection; assay type: cell-based, Cryptosporidium parvum; details: for EC50: Cryptosporidium parvum, host cells pretreated 3 h, C. parvum, 48 hpi
Experimental: A set of parallel wells were also treated and not washed prior to infection. 48 hpi, infected cells were imaged as described above, and EC50s for each compound pre- and post-wash were determined.

[5] = HEK293T 72 h cytotoxicity (CellTiter-Glo); assay type: cell-based, human; details: human
Experimental: as §1

[6] = design: method as in PMID 2656045; details: cited from earlier work
C. parvum [7] = experiment: Washout assay: 3-h treatments over the asexual life cycle of C. parvum; details: 3-h treatment then washout; even at 3×EC99
Experimental: We examined short, three-hour compound treatments of in vitro cultures, followed by compound washout, that covered the complete asexual life cycle, believed to be 13–15 h post invasion [36]. […] The treatment interval lasted 3 h before washout with fresh medium; infected cells were allowed to grow until 48 h post infection before fixation. […] As CFZ is very lipophilic, we sought to determine whether intracellular accumulation was affecting the strong inhibition across each time point.
Infected cells were treated in six 3-h increments over the course of 15 h (the presumed in vitro asexual lifecycle of C. parvum). HCT-8 cells were seeded (25 μL/well) into clear-bottomed 384-well plates (Greiner) at a density of 6.0×10^5 cells/mL (15,000 cells/well) in assay medium, and allowed to grow 24 h at 37°C with 5% CO2 in a humidified tissue culture incubator, covered with a custom metal lid (The Genomics Institute of the Novartis Research Foundation) to reduce evaporation. After 24 h, and 2 h before infecting with C. parvum oocysts (time -2 hpi), the treatment time course was initiated. […] DMSO was used as a negative control. Cell medium was removed from designated wells and replaced with medium containing either compound or DMSO. […] Plates were then spun at 150×g for 3 min, and kept at 37°C with 5% CO2 in a humidified tissue culture incubator during drug treatment intervals. At the end of each 3 h time point, infected cells were carefully washed three times with fresh, pre-warmed assay medium, and the next set of wells for the subsequent time point were treated. The final time point extended to 18 h, to cover re-invasion of merozoites into new HCT-8 cells. After the final compound treatment was washed off, infected cells were allowed to grow until 48 h post infection.

Cryptosporidium = tested on: Cryptosporidium; design: method as in PMID 23878324; details: once per day for ten consecutive days at 100 mg/kg; cited from earlier work
[8] = 7% Tween 80, 3% ethanol, 90% water

SMILES: CC(C)/N=c1\cc2n(-c3ccc(Cl)cc3)c3ccccc3nc-2cc1Nc1ccc(Cl)cc1 [Clofazimine]
- CC50 at 72 h ([1]; HepG2 cells, 72 h, value (SD; n), read-out: HepG2 72H Cytotoxicity CC50 [µM] (SD; n)): > 20 µM
- oocyst shedding, % of control group (C. parvum [2]; 10 mg/kg oral daily from day 4 p.i., within two days of treatment onset): 2.5% ± 1.7%
- oocyst shedding, % of mock-dosed mice (C. parvum [2]): below 1%
- oocyst shedding (C. parvum [2]; once daily for three consecutive days or a single high dose): reduction of oocyst shedding below the limit detectable by flow cytometry
- oocyst shedding, % of mock-treated mice (C. parvum [2]; single 100 mg/kg oral dose on day 4, 1×10^6 oocysts, second day after treatment): 1.5% ± 0.4%
- dosage excreted in the urine, first 48 h [3]: < 0.15%
- time plasma concentrations remained stable after the initial maximal concentration [3]: at least 20 hours
- fecal excretion (unchanged), first 24 h ([3]; MC-Tween): 25.7% ± 13.3%
- peak plasma concentration ([3]; MC-Tween, within first 24 h): 288 ± 2 ng/mL
- fecal excretion (unchanged), first 24 h ([3]; corn oil): 14.8% ± 3.1%
- peak plasma concentration ([3]; corn oil, within first 24 h): 445 ± 61 ng/mL
- mean fecal excretion, next 48 h ([3]; either formulation): < 2%
- EC50 (C. parvum [4]; read-out: Post-wash EC50): 0.007 µM
- EC50 (C. parvum [4]; read-out: Pre-wash EC50): 0.023 µM
- inhibition of C. parvum proliferation after compound removal by repeated washes (C. parvum [4]; host cell pre-treatment, dose-response): near equipotent inhibition
- CC50 at 72 h ([5]; HEK293T cells, 72 h, value (SD; n), read-out: HEK293T 72H Cytotoxicity CC50 [µM] (SD; n)): > 20 µM
- drug half-life [6]: ~ 70 days

SMILES: CCOc1ccc2cc(-c3nn(CC4CCN(C)CC4)c4ncnc(N)c34)ccc2c1 [BKI-1294]
- inhibition of parasite growth at all time points other than 10–13 h post infection (C. parvum [7]): < 60%
- CC50 at 72 h [1]: 11.1 µM
- oocyst shedding, % of mock-dosed mice (C. parvum [2]): 18.1% ± 2.2%
- efficacy in mouse model of chronic cryptosporidiosis (Cryptosporidium): demonstrated efficacy
- dosage excreted in the urine, first 48 h [3]: 1.6%
- plasma concentration dropped to, within first 24 h post dosing [3]: 6.7 ± 0.3 ng/mL
- fecal excretion (unchanged), first 24 h [3, 8]: 8.9% ± 0.5%
- peak plasma concentration [3, 8]: 1282 ± 154 ng/mL
- EC50 (C. parvum [4]; read-out: Post-wash EC50): 0.955 µM
- EC50 (C. parvum [4]; read-out: Pre-wash EC50): > 12.5 µM
- CC50 at 72 h [5]: 12.4 µM
